Laboratory results: patent publication US9255132B2, “Angiopoietin derived peptides” (Compugen Ltd., priority 2008, dated 2016)
Residues, ends and D or L forms follow the SMILES beside them.

Each compound was assayed against T1, human Ang2 (Homo sapiens, UniProt O15123) (assay: BIACORE (SPR) binding of peptides to immobilized recombinant Ang2). Conditions: CM5 chip, 10-50 μM peptide.
T1 construct: purchased R&D Systems 623-AN-025/CF
T1 sequence (O15123 19-496): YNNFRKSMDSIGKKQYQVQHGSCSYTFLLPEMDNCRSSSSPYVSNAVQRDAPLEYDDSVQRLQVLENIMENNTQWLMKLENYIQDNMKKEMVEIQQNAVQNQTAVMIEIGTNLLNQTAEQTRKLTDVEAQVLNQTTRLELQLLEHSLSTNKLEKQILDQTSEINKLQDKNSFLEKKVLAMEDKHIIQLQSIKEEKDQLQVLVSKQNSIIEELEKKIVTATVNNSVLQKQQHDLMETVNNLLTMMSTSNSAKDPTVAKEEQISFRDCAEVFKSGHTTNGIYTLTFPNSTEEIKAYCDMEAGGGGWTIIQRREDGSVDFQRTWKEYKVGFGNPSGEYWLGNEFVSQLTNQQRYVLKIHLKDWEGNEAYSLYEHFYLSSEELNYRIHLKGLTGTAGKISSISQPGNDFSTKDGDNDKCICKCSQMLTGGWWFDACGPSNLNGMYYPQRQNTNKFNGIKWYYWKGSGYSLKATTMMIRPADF
Text: The capability of CGEN-H2 [SEQ ID NO: 1], CGEN-H3 [SEQ ID NO: 2], CGEN-A8 [SEQ ID NO: 3], CGEN-H7 [SEQ ID NO: 4], CGEN-G4 [SEQ ID NO: 5], CGEN-G6 [SEQ ID NO: 6], CGEN-F9 [SEQ ID NO: 7], CGEN-F12 [SEQ ID NO: 8], CGEN-C6-30 [SEQ ID NO: 9], CGEN-All [SEQ ID NO: 10], and CGEN-G2 [SEQ ID NO: 11] to specifically bind to recombinant Ang1, Ang2, and Ang4 was investigated using the BIACORE technology, measuring protein-protein interaction and binding affinity (Wendler et al 2005, Anal Bioanal Chem, 381: 1056-1064). The technology is based on surface plasmon resonance (SPR), an optical phenomenon that enables detection of unlabeled interactants in real time. The SPR-based biosensors can be used in determination of active concentration, screening and characterization in terms of both affinity and kinetics.
Peptide-protein binding was analyzed using surface plasmon resonance. Analysis of the to interaction between CGEN-H2 [SEQ ID NO: 1], CGEN-H3 [SEQ ID NO: 2], CGEN-A8 [SEQ ID NO: 3], CGEN-H7 [SEQ ID NO: 4], CGEN-G4 [SEQ ID NO: 5], CGEN-G6 [SEQ ID NO: 6], CGEN-F9 [SEQ ID NO: 7], CGEN-F12 [SEQ ID NO: 8], CGEN-C6 [SEQ ID NO: 9], CGEN-A11 [SEQ ID NO: 10], and CGEN-G2 [SEQ ID NO: 11] peptides and recombinant human Ang1 carrier-free (R&D Systems, Cat#923-AN-025/CF, Lot#FHW1507031), human Ang2 carrier-free (R&D Systems, Cat#623-AN-025/CF, Lot#BNO0457121), and human Ang4 carrier-free (R&D Systems, Cat#964-AN-025/CF, Lot#ELM025121) was conducted using the BIAcore biosensor (Pharmacia Biosensor, Uppsala, Sweden). The recombinant Ang1, Ang2, and Ang4 were immobilized directly to a CM5 sensor chip. Solutions containing 10-50 μM of CGEN-H2 [SEQ ID NO: 1], CGEN-H3 [SEQ ID NO: 2], CGEN-A8 [SEQ ID NO: 3], CGEN-H7 [SEQ ID NO: 4], CGEN-G4 [SEQ ID NO: 5], CGEN-G6 [SEQ ID NO: 6], CGEN-F9 [SEQ ID NO: 7], CGEN-F12 [SEQ ID NO: 8], CGEN-C6 [SEQ ID NO: 9], CGEN-A11 [SEQ ID NO: 10], and CGEN-G2 [SEQ ID NO: 11] peptides were injected into the sample chamber of the BIACORE device at a rate of […] and the interaction was monitored using surface plasmon resonance.
Solutions containing different concentrations of CGEN-G6 [SEQ ID NO: 6], CGEN-F9 [SEQ ID NO: 7], CGEN-F12 [SEQ ID NO: 8], CGEN-A11 [SEQ ID NO: 10], and CGEN-G2 [SEQ ID NO: 11] peptides (as indicated in Table 2) were injected into the sample chamber of the BIACORE device at a rate of […] and the interaction was monitored using surface plasmon resonance. As a background, the solutions were also injected onto an empty flow cell with no immobilized ligand and the in binding levels achieved were subtracted. Data was analyzed using BIAevaluation software. The affinity constant of the interaction between CGEN-G6 [SEQ ID NO: 6], CGEN-F9 [SEQ ID NO: 7], CGEN-F12 [SEQ ID NO: 8], CGEN-C6 [SEQ ID NO: 9], CGEN-A11 [SEQ ID NO: 10], and CGEN-G2 [SEQ ID NO: 11] and Ang1, Ang2, or Ang4 was determined by direct kinetic analysis. The 1:1 Langmuir binding model was used to fit kinetic data.
Table 2 summarizes results of analysis of CGEN-G6 [SEQ ID NO: 6], CGEN-F9 [SEQ ID NO: 7], CGEN-F12 [SEQ ID NO: 8], CGEN-A11 [SEQ ID NO: 10], and CGEN-G2 [SEQ ID NO: 11] interaction with Ang1, Ang2, or Ang4. Kinetic measurements were done at the indicated concentration range, and they are presented as KD (M). CGEN-F12 [SEQ ID NO: 8] bound to Ang1 and Ang4 with high affinity. The specificity of this binding is not clear.

SMILES | binding to immobilized Ang2 (in words)
CC(=O)N[C@@H](CCC(=O)O)C(=O)N[C@H](C(=O)N[C@@H](Cc1ccccc1)C(=O)N[C@@H](CC(C)C)C(=O)N[C@@H](CO)C(=O)N[C@H](C(=O)N[C@@H](CC(N)=O)C(=O)N[C@@H](CCCCN)C(=O)N[C@@H](CC(C)C)C(=O)N[C@@H](CCC(=O)O)C(=O)N[C@@H](CC(N)=O)C(=O)N[C@@H](CCC(N)=O)C(N)=O)[C@@H](C)O)[C@@H](C)O [CGEN-A11, ETFLSTNKLENQ] (Ac-ETFLSTNKLENQ-NH2) | capable of binding
CSCC[C@H](NC(=O)[C@H](CC(C)C)NC(=O)[C@H](CC(=O)O)NC(C)=O)C(=O)N[C@@H](CCC(=O)O)C(=O)N[C@H](C(=O)N[C@H](C(=O)N[C@@H](CC(N)=O)C(=O)N[C@@H](CC(N)=O)C(=O)N[C@@H](CC(C)C)C(=O)N[C@@H](CC(C)C)C(=O)N[C@H](C(=O)N[C@@H](CCSC)C(=O)N[C@@H](CCSC)C(=O)N[C@@H](CO)C(=O)N[C@H](C(=O)N[C@@H](CO)C(=O)N[C@@H](CC(N)=O)C(=O)N[C@@H](CO)C(=O)N[C@@H](C)C(=O)N[C@@H](CCCCN)C(=O)N[C@@H](CC(=O)O)C(N)=O)[C@@H](C)O)[C@@H](C)O)C(C)C)[C@@H](C)O [CGEN-G6] (Ac-DLMETVNNLLTMMSTSNSAKD-NH2) | capable of binding
CC[C@H](C)[C@H](NC(=O)[C@H](C)NC(=O)[C@H](CCCNC(=N)N)NC(=O)[C@H](CCC(=O)O)NC(=O)[C@H](CC(C)C)NC(=O)[C@H](CCCCN)NC(=O)[C@H](CCCCN)NC(=O)[C@H](CC(C)C)NC(=O)[C@H](Cc1c[nH]c2ccccc12)NC(=O)[C@H](CCC(N)=O)NC(=O)[C@@H](NC(=O)[C@H](CC(N)=O)NC(=O)[C@H](CC(N)=O)NC(=O)[C@H](CCC(N)=O)NC(=O)[C@H](CC(C)C)NC(=O)[C@H](C)NC(=O)[C@H](CCC(N)=O)NC(=O)[C@H](CCC(=O)O)NC(=O)[C@H](CC(C)C)NC(=O)[C@H](CCC(N)=O)NC(=O)[C@H](CCCCN)NC(=O)[C@@H](NC(=O)[C@H](CCC(N)=O)NC(=O)[C@H](CCC(N)=O)NC(=O)[C@@H](NC(C)=O)[C@@H](C)O)C(C)C)[C@@H](C)O)C(=O)N[C@@H](CCCCN)C(=O)N[C@H](C(=O)N[C@H](C(=O)N[C@@H](CC(C)C)C(N)=O)[C@@H](C)CC)[C@@H](C)O [CGEN-G2] (Ac-TQQVKQLEQALQNNTQWLKKLERAIKTIL-NH2) | capable of binding
